# Experimental data taken from patent publication US20230072683A1, “PYRIDO-PYRIMIDIN DERIVATIVES AND PHARMACEUTICAL COMPOSITION, FOR USE IN PREVENTING OR TREATING PI3 KINASE RELATED DISEASES, COMPRISING SAME AS ACTIVE INGREDIENT” (BORYUNG PHARMACEUTICAL CO., LTD, priority 2019, published 2023).
# Where two headings read alike, the source gives them in different places.
# Key:
# DNA-PK(h) = DNA-PK(h) (Homo sapiens, UniProt P78527); experiment: Evaluation of inhibitory activity against DNA-PK (HTRF kinase assay, GST-cMyc-p53 substrate); type: biochemical; details: for inhibition at 0.01 µM: read-out: EXP_VALUE(% Inhibition) DNA-PK(h) 0.01 μM; for inhibition at 0.1 µM: read-out: EXP_VALUE(% Inhibition) DNA-PK(h) 0.1 μM
# Summary of the method: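 Human DNA-PK with 50 μM GST-cMyc-p53 substrate; reaction started with Mg/ATP, run 30 min at room temperature, stopped with EDTA. Phospho-Ser15 p53 detected by HTRF (Eu anti-phospho-Ser15, d2 anti-GST), signal = 10000×(Em 665/Em 620).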
# [1] = target: PI3K-δ (PI3K(p1108/p857) (h)) (Homo sapiens, UniProt O00329); experiment: Evaluation of inhibitory activity against PI3K-δ (HTRF kinase assay); type: biochemical; details: for inhibition at 0.01 µM: read-out: EXP_VALUE(% Inhibition) PI3K-δ 0.01 μM; for inhibition at 0.1 µM: read-out: EXP_VALUE(% Inhibition) PI3K-δ 0.1 μM
# Summary of the method: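 HTRF read-out (665/620 nm ratio ×10000) used Eu-labelled anti-GST, GST-tagged GRP1 PH domain and streptavidin-allophycocyanin after EDTA/PIP3 stop.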
# Sequence of PI3K-δ (PI3K(p1108/p857) (h)) (O00329 whole entry, the tested form may be a part): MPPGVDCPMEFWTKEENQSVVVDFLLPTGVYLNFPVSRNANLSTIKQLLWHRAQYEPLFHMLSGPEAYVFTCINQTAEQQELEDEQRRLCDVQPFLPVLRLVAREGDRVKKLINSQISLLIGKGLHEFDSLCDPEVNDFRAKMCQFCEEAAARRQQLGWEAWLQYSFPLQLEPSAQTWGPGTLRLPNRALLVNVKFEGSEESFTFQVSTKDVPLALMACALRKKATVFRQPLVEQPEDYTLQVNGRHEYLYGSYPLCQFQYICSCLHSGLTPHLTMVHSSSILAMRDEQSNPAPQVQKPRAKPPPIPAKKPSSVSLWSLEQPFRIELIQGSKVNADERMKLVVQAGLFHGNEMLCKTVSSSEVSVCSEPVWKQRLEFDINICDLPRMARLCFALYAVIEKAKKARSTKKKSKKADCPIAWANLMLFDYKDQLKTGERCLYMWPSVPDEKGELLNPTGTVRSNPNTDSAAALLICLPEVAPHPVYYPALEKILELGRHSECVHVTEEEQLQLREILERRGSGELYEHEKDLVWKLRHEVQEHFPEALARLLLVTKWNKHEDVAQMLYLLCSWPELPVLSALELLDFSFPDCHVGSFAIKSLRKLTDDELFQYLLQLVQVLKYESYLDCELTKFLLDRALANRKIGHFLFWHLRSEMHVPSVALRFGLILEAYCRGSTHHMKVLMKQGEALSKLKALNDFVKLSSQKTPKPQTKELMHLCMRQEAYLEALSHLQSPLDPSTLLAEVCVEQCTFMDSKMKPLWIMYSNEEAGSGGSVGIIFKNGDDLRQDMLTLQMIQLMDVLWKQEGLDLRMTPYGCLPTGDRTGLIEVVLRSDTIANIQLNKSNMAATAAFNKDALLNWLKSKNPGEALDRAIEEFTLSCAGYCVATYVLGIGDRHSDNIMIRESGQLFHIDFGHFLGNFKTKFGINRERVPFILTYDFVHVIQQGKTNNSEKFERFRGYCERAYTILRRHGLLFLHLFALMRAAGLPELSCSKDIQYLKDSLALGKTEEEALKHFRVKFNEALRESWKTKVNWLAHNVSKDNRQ
# Sequence of PI3K-δ (PI3K(p1108/p857) (h)) (P27986 whole entry partner, the tested form may be a part): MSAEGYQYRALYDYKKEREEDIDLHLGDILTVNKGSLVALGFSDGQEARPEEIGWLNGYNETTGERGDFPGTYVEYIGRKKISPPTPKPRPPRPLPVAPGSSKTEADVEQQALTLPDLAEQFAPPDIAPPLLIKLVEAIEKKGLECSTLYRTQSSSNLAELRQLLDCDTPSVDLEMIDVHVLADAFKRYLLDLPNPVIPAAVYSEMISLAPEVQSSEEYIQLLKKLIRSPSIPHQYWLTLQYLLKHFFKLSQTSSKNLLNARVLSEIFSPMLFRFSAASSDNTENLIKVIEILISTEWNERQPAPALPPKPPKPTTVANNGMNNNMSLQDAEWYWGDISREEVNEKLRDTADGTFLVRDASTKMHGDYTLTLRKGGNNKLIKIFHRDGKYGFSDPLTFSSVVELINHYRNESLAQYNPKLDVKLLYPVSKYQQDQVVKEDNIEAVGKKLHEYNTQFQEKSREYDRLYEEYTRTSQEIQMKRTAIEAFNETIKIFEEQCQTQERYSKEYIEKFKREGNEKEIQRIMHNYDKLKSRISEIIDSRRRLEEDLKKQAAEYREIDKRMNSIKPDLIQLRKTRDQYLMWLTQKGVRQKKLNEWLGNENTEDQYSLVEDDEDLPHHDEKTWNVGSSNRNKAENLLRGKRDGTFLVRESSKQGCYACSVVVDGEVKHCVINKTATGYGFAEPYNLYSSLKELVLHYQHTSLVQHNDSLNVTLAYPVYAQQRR
Structure (SMILES),inhibition at 0.01 µM (DNA-PK(h); compound concentration 0.01 μM),inhibition at 0.01 µM ([1]; compound concentration 0.01 μM),inhibition at 0.1 µM (DNA-PK(h); compound concentration 0.1 μM),inhibition at 0.1 µM ([1]; compound concentration 0.1 μM),also measured
"C[C@H](Nc1ncnc2[nH]ccc(=O)c12)c1c(Cl)c2cccc(COCC(C)(C)CO)c2c(=O)n1-c1ccccc1 [Example 359, (S)-4-((1-(4-chloro-8-((3-hydroxy-2,2-dimethylpropoxy)methyl)-1-oxo-2-phenyl-1,2-dihydroisoquinolin-3-yl)ethyl)amino)pyrido[2,3-d]pyrimidin-5(8H)-one]",8%,46%,–,–,–
"COc1ncc(-c2cccc3c(Cl)c([C@H](C)Nc4ncnc5[nH]ccc(=O)c45)n(-c4ccccc4)c(=O)c23)cc1NS(=O)(=O)c1ccc(F)cc1F [Example 232, (S)—N-(5-(4-chloro-1-oxo-3-(1-((5-oxo-5,8-dihydropyrido[2,3-d]pyrimidin-4-yl)amino)ethyl)-2-phenyl-1,2-dihydroisoquinolin-8-yl)-2-methoxypyridin-3-yl)-2,4-difluorobenzenesulfonamide]",15%,23%,–,–,–
"C[C@H](Nc1ncnc2[nH]ccc(=O)c12)c1c(Cl)c2cccc(C(O)C(C)(C)C)c2c(=O)n1-c1ccccc1 (stereo partly drawn) [Example 357, 4-(((1S)-1-(4-chloro-8-(1-hydroxy-2,2-dimethylpropyl)-1-oxo-2-phenyl-1,2-dihydroisoquinolin-3-yl)ethyl)amino)pyrido[2,3-d]pyrimidin-5(8H)-one]",15%,11%,–,–,–
"C[C@H](Nc1ncnc2[nH]ccc(=O)c12)c1cc2cccc(C#N)c2c(=O)n1-c1ccccc1 [Example 266, (S)-1-oxo-3-(1-((5-oxo-5,8-dihydropyrido[2,3-d]pyrimidin-4-yl)amino)ethyl)-2-phenyl-1,2-dihydroisoquinoline-8-carbonitrile]",-10%,69%,3%,88%,–
"Cc1c(-c2cccc3c(Cl)c([C@H](C)Nc4ncnc5[nH]ccc(=O)c45)n(-c4ccccc4)c(=O)c23)cnn1C [Example 82, (S)-4-((1-(4-chloro-8-(1,5-dimethyl-1H-pyrazol-4-yl)-1-oxo-2-phenyl-1,2-dihydroisoquinolin-3-yl)ethyl)amino)pyrido[2,3-d]pyrimidin-5(8H)-one]",74%,73%,94%,94%,–
"CC(=O)Nc1cccc2c(Cl)c([C@H](C)Nc3ncnc4[nH]ccc(=O)c34)n(-c3ccccc3)c(=O)c12 [Example 296, (S)—N-(4-chloro-1-oxo-3-(1-((5-oxo-5,8-dihydropyrido[2,3-d]pyrimidin-4-yl)amino)ethyl)-2-phenyl-1,2-dihydroisoquinolin-8-yl) acetamide]",30%,46%,–,–,–
"C[C@H](Nc1ncnc2[nH]ccc(=O)c12)c1c(Cl)c2cccc(N(C)Cc3ccc4ccccc4c3)c2c(=O)n1-c1ccccc1 [Example 334, (S)-4-((1-(4-chloro-8-(methyl(naphthalen-2-ylmethyl)amino)-1-oxo-2-phenyl-1,2-dihydroisoquinolin-3-yl)ethyl)amino)pyrido[2,3-d]pyrimidin-5(8H)-one]",10%,9%,27%,49%,–
"COc1cc(-n2ccc(=O)c3c(N[C@@H](C)c4c(Cl)c5ccccc5c(=O)n4-c4ccccc4)ncnc32)ccn1 [Example 374, (S)-4-((1-(4-chloro-1-oxo-2-phenyl-1,2-dihydroisoquinolin-3-yl)ethyl)amino)-8-(2-methoxypyridin-4-yl)pyrido[2,3-d]pyrimidin-5(8H)-one]",–,–,–,–,inhibition at 0.1 µM (DNA-PK(h); compound at 0.1 μM): 14%; inhibition at 0.1 µM ([1]; compound at 0.1 μM): 21%
"CCCSc1ccc(-c2cccc3c(Cl)c([C@H](C)Nc4ncnc5[nH]ccc(=O)c45)n(-c4ccccc4)c(=O)c23)cc1 [Example 151, (S)-4-((1-(4-chloro-1-oxo-2-phenyl-8-(4-(propylthio)phenyl)-1,2-dihydroisoquinolin-3-yl)ethyl)amino)pyrido[2,3-d]pyrimidin-5(8H)-one]",23%,44%,–,–,–
"CSc1ccc(-c2cccc3c(Cl)c([C@H](C)Nc4ncnc5[nH]ccc(=O)c45)n(-c4ccccc4)c(=O)c23)cc1 [Example 143, (S)-4-((1-(4-chloro-8-(4-(methylthio)phenyl)-1-oxo-2-phenyl-1,2-dihydroisoquinolin-3-yl)ethyl)amino)pyrido[2,3-d]pyrimidin-5(8H)-one]",25%,48%,80%,94%,–
"C[C@H](Nc1ncnc2[nH]ccc(=O)c12)c1c(Cl)c2cccc(-c3cnc(N(C)C)cn3)c2c(=O)n1-c1ccccc1 [Example 205, (S)-4-((1-(4-chloro-8-(5-(dimethylamino)pyrazin-2-yl)-1-oxo-2-phenyl-1,2-dihydroisoquinolin-3-yl)ethyl)amino)pyrido[2,3-d]pyrimidin-5(8H)-one]",47%,49%,–,–,–
"CC(C)Oc1cc(-c2cccc3c(Cl)c([C@H](C)Nc4ncnc5[nH]ccc(=O)c45)n(-c4ccccc4)c(=O)c23)ccn1 [Example 180, (S)-4-((1-(4-chloro-8-(2-isopropoxypyridin-4-yl)-1-oxo-2-phenyl-1,2-dihydroisoquinolin-3-yl)ethyl)amino)pyrido[2,3-d]pyrimidin-5(8H)-one]",59%,83%,–,–,–
"C[C@H](Nc1ncnc2[nH]ccc(=O)c12)c1c(Cl)c2cccc(-c3ccc4c(c3)ncn4C)c2c(=O)n1-c1ccccc1 [Example 114, (S)-4-((1-(4-chloro-8-(1-methyl-1H-benzo[d]imidazol-5-yl)-1-oxo-2-phenyl-1,2-dihydroisoquinolin-3-yl)ethyl)amino)pyrido[2,3-d]pyrimidin-5(8H)-one]",77%,87%,97%,95%,–
"C[C@H](Nc1ncnc2[nH]ccc(=O)c12)c1c(Cl)c2cccc(C#Cc3cncnc3)c2c(=O)n1-c1ccccc1 [Example 316, (S)-4-((1-(4-chloro-1-oxo-2-phenyl-8-(pyrimidin-5-ylethynyl)-1,2-dihydroisoquinolin-3-yl)ethyl)amino)pyrido[2,3-d]pyrimidin-5(8H)-one]",88%,43%,99%,91%,–
"C[C@H](Nc1ncnc2[nH]ccc(=O)c12)c1c(Cl)c2cccc(NS(C)(=O)=O)c2c(=O)n1-c1ccccc1 [Example 300, (S)—N-(4-chloro-1-oxo-3-(1-((5-oxo-5,8-dihydropyrido[2,3-d]pyrimidin-4-yl)amino)ethyl)-2-phenyl-1,2-dihydroisoquinolin-8-yl) methanesulfonamide]",44%,63%,–,–,–
"C[C@H](Nc1ncnc2[nH]ccc(=O)c12)c1c(Cl)c2cccc(Sc3ccccn3)c2c(=O)n1-c1ccccc1 [Example 412, (S)-4-((1-(4-chloro-1-oxo-2-phenyl-8-(pyridin-2-ylthio)-1,2-dihydroisoquinolin-3-yl)ethyl)amino)pyrido[2,3-d]pyrimidin-5(8H)-one]",–,–,–,–,inhibition at 0.1 µM (DNA-PK(h); compound at 0.1 μM): 15%; inhibition at 0.1 µM ([1]; compound at 0.1 μM): 29%
"Cc1c[nH]c2ccc(-c3cccc4c(Cl)c([C@H](C)Nc5ncnc6[nH]ccc(=O)c56)n(-c5ccccc5)c(=O)c34)cc12 [Example 74, (S)-4-((1-(4-chloro-8-(3-methyl-1H-indol-5-yl)-1-oxo-2-phenyl-1,2-dihydroisoquinolin-3-yl)ethyl)amino)pyrido[2,3-d]pyrimidin-5(8H)-one]",54%,65%,90%,88%,–
"C[C@H](Nc1ncnc2[nH]ccc(=O)c12)c1c(Cl)c2cccc(C#N)c2c(=O)n1-c1ccccc1 [Example 265, (S)-4-chloro-1-oxo-3-(1-((5-oxo-5,8-dihydropyrido[2,3-d]pyrimidin-4-yl)amino)ethyl)-2-phenyl-1,2-dihydroisoquinoline-8-carbonitrile]",40%,71%,77%,87%,–
"C[C@H](O)c1cccc2c(Cl)c([C@H](C)Nc3ncnc4[nH]ccc(=O)c34)n(-c3ccccc3)c(=O)c12 [Example 441, 4-(((S)-1-(4-chloro-8-((S)-1-hydroxyethyl)-1-oxo-2-phenyl-1,2-dihydroisoquinolin-3-yl)ethyl)amino)pyrido[2,3-d]pyrimidin-5(8H)-one]",–,–,–,–,inhibition at 0.01 µM (DNA-PK(h); compound at 0.01 μM): 35%; inhibition at 0.01 µM ([1]; compound at 0.01 μM): 54%
"C[C@H](Nc1ncnc2[nH]ccc(=O)c12)c1c(Cl)c2cccc(-c3cnc4ccccc4n3)c2c(=O)n1-c1ccccc1 [Example 48, (S)-4-((1-(4-chloro-1-oxo-2-phenyl-8-(quinoxalin-2-yl)-1,2-dihydroisoquinolin-3-yl)ethyl)amino)pyrido[2,3-d]pyrimidin-5(8H)-one]",-5%,7%,–,–,–
"CC(C)Nc1ncc(-c2cccc3c(Cl)c([C@H](C)Nc4ncnc5[nH]ccc(=O)c45)n(-c4ccccc4)c(=O)c23)cn1 [Example 220, (S)-4-((1-(4-chloro-8-(2-(isopropylamino)pyrimidin-5-yl)-1-oxo-2-phenyl-1,2-dihydroisoquinolin-3-yl)ethyl)amino)pyrido[2,3-d]pyrimidin-5(8H)-one]",73%,87%,–,–,–
